Laboratory results from PMC5556071, “ATR inhibition facilitates targeting of leukemia dependence on convergent nucleotide biosynthetic pathways” (Nature Communications, 2017).

Test system: CEM T-ALL cells
Assay: Cell cycle kinetics by EdU incorporation (flow cytometry) after release from Palbociclib G1 arrest
Assay type: cell-based, human
Details: for S1 / S2 / S3: synchronous CEM, 12 h after G1 release
Protocol: CEM T-ALL cells were synchronized in G1 phase, and then treated as indicated. Cells were pulsed with EdU 1 h before collection at different time points. Cells were fixed 4% paraformaldehyde, permeabilized with perm/wash reagent (Invitrogen), stained with Azide-AF647 (using click-chemistry, Invitrogen; Click-iT EdU Flow cytometry kit, #C10634) and FxCycle-Violet (Invitrogen), and then analyzed flow cytometry (a detailed description is available in the Supplementary Information).
Cell cycle synchronization. Cells were treated with a CDK4/6 inhibitor, Pablociclib or PD-0332991 (Selleckchem, S1116) for 18 h to synchronize them in the G1 phase. Subsequently, cells were washed twice with PBS containing 2% FBS (Omega Scientific) and released into fresh media. […]
0.5 ml of propidium iodide (Calbiochem, #P3566, 1 µg/mL) solution containing Ribonuclease A and 0.3% Triton-X 100. The samples were protected from light before acquisition by flow cytometry.
Cell cycle kinetics and cell cycle progression by intracellular detection of DNA-incorporated 5-ethynyl-2-deoxyuridine (EdU). CEM T-ALL cells were plated at a density of 0.5 x 10^6 cells/mL. Cells were pulsed with 10 µM EdU (Invitrogen) for 1 h, washed twice with PBS, and released in fresh media containing 5 µM deoxyribonucleosides, with and without drugs. Cells were collected at different time points following release in fresh media, and then fixed with 4% paraformaldehyde and permeabilized using saponin perm/wash reagent (Invitrogen). Cells were then stained with azide-Alexa Fluor 647 by Click reaction according to manufacturer’s protocol (Invitrogen; Click-iT EdU Flow cytometry kit, #C10634). The total DNA content was assessed by staining the samples with FxCycle-Violet (Invitrogen, #F10347) at 1 µg/mL final concentration in PBS containing 2% FBS. To measure the cell cycle progression of a synchronous population of cells, cells were first arrested in the G1 phase following treatment with 1 µM Palbociclib for 18 h, then washed and released in fresh media supplemented with drugs. Before collecting and fixing the cells at different time points, the cells were pulse-labeled with 10 µM EdU for 1 h, and then labeled with azide-Alexa Fluor 647 (Invitrogen; Click-iT EdU Flow cytometry kit). Total DNA content was assessed by staining with FxCycle-Violet (Invitrogen) at 1 µg/mL final concentration in PBS containing 2% FBS. pH2A.X staining. Cells were harvested, fixed and permeabilized with cytofix/cytoperm (BD biosciences, #554722) for 15 min on ice protected from light. Cells were washed, then resuspended in 100 µL 1X Perm/wash buffer (BD Sciences) and incubated for 15 min on ice. The cells were washed, then resuspended in 50 µL with phospho-Histone H2A.X (Ser139) antibody conjugated to fluorochrome FITC (EMD Millipore, #05-636, 1:800 dilutions in perm/wash) for 20 min in the dark at RT. Subsequently, cells were washed and stained with 0.5 mL of DAPI (Invitrogen, #D1306) for DNA content (1 µg/mL in 2% FBS in PBS) before data […]
Measurement of ssDNA levels using the F7-26 monoclonal antibody. Cells were harvested and fixed with ice-cold methanol:PBS (6:1 v/v) for 24h. Staining with F7-26 monoclonal mouse antibody was performed according to manufacturer’s instructions (EMD Millipore, #MAB3299). Fixed cells were resuspended in 250 µL of formamide and heated in a water bath at 75 °C for 10 min. Cells were then allowed to equilibrate to room temperature and then washed with 2 mL of 1% non-fat dry milk in PBS for 15 min. Subsequently, cells were resuspended in 100 µL of anti-ssDNA Mab F7-26 (EMD Millipore, 1:10 in 5% FBS in PBS) and incubated for 45 min at room temperature. Cells were washed with PBS and stained with 100 µL of fluorescence-conjugated

| Structure (SMILES) | fewer cells entered S2 compared to untreated cells (12 h after release from G1 arrest) [%] | S1 (+ dNTP (10 µM)) [%] | S2 (+ dNTP (10 µM)) [%] | S3 (+ dNTP (10 µM)) [%] | S1 (– dNTP) [%] | S2 (– dNTP) [%] | S3 (– dNTP) [%] | percentage of cell population in S2* (late S-phase) (12 h following release from G1 arrest, DI-82 1 µM) [%] |
| --- | --- | --- | --- | --- | --- | --- | --- | --- |
| CNCc1ccc(-c2cc(-c3nc(-c4ccc(S(=O)(=O)C(C)C)cc4)cnc3N)on2)cc1 [VE-822] | 16 | 43 | 52 | 1.5 | 58 | 37 | 1 |  |
| COc1ccc(-c2nc([C@@H](C)Sc3nc(N)cc(N)n3)c(C)s2)cc1OCCNS(C)(=O)=O [dCKi] |  | 42 | 42 | 14 | 66 | 22 | 8.4 | 6.1 |
